The compounds below were run on Hamster pancreatic β cell strain HIT-T15 cells (assay: Action of promoting insulin secretion (Test Example 1)). Conditions: Mesocricetus auratus, glucose 2 mM, 1 hour at 37° C., insulin in the supernatant, 0.0001 μM to 10 μM, read-out: EC50 (50% effect concentration, insulin secretion).
Format: cell-based
Procedure: Action of Promoting Insulin Secretion
Hamster pancreatic β cell strain HIT-T15 cells were subcultured by using a Ham's F-12K culture medium containing penicillin (100 unit/mL), streptomycin (100 μg/mL) and 10% fetal bovine serum. The cells were sown on a 24-well cell culture plate, cultured at 37° C. for 48 hours, and washed with a 0.10 albumin KRBH buffer. Subsequently, the cells were allowed to stand in the same buffer at 37° C. for 1 hour. Glucose was added thereto so as to give a final concentration of 2 mM, and the compound of the present invention that had been dissolved in dimethylsulfoxide at a concentration of 1.000-fold of the respective concentrations (from 0.0001 μM to 10 μM at a common ratio of 10) was further added under a condition that the compound was included in an amount of 0.1 volume % in the buffer. After the addition of the compound of the present invention, the cells were allowed to stand at 37° C. for 1 hour, and the concentration of the insulin included in the supernatant was measured by an insulin kit (SCETI Medical Labo K. K.). A hamster insulin standard solution (SHIBAYAGI Co., Ltd.) was used as a standard solution. A control to which only dimethylsulfoxide had been added was used. The results are shown in Table 8 as the 50% effect concentrations (EC50 values, 50% effect concentrations)) of the respective subject compounds. The EC50 values were calculated by using a statistical analysis program, SAS Pre-Clinical Package Ver 5.0 (SAS institute Japan Co., Tokyo).

Structure (SMILES)	EC50 [nM]
CC(C)(C)OC(=O)N1CCC(c2coc3c(Nc4ccc(S(C)(=O)=O)cc4F)ncnc23)CC1 [Example 1, Tert-Butyl 4-(4-{[2-fluoro-4-(methylsulfonyl)phenyl]amino}furo[3,2-d]pyrimidin-7-yl)piperidine-1-carboxylate]	5.3
CS(=O)(=O)c1ccc(Nc2ncnc3c(C4CCN(c5ncc(Cl)cn5)CC4)coc23)c(F)c1 [Example 2, 7-[1-(5-chloropyrimidin-2-yl)piperidin-4-yl]-N-[2-fluoro-4-(methylsulfonyl)phenyl]furo[3,2-d]pyrimidine-4-amine]	4
CCc1cnc(N2CCC(c3coc4c(Nc5ccc(S(C)(=O)=O)cc5F)ncnc34)CC2)nc1 [Example 3, 7-[1-(5-ethylpyrimidin-2-yl)piperidin-4-yl]-N-[2-fluoro-4-(methylsulfonyl)phenyl]furo[3,2-d]pyrimidine-4-amine]	14.3
CS(=O)(=O)c1ccc(Nc2ncnc3c(C4CCN(c5ncc(F)cn5)CC4)coc23)c(F)c1 [Example 4, N-[2-fluoro-4-(methylsulfonyl)phenyl]-7-[1-(5-fluoropyrimidin-2-yl)piperidin-4-yl]furo[3,2-d]pyrimidine-4-amine]	33.1
CS(=O)(=O)c1ccc(Nc2ncnc3c(C4CCN(c5ncc(Br)cn5)CC4)coc23)c(F)c1 [Example 5, 7-[1-(5-bromopyrimidin-2-yl)piperidin-4-yl]-N-[2-fluoro-4-(methylsulfonyl)phenyl]furo[3,2-d]pyrimidine-4-amine]	12.4
CS(=O)(=O)c1ccc(Nc2ncnc3c(C4CCN(c5ccc(C(F)(F)F)cn5)CC4)coc23)c(F)c1 [Example 6, N-[2-fluoro-4-(methylsulfonyl)phenyl]-7-{1-[5-(trifluoromethyl)pyridin-2-yl]piperidin-4-yl}furo[3,2-d]pyrimidine-4-amine]	20.5
CS(=O)(=O)c1ccc(Nc2ncnc3c(C4CCN(C(=O)OCc5ccccc5)CC4)coc23)c(F)c1 [Example 7, benzyl 4-(4-{[2-fluoro-4-(methylsulfonyl)phenyl]amino}furo[3,2-d]pyrimidin-7-yl)piperidine-1-carboxylate]	33.7
CC(C)OC(=O)N1CCC(c2coc3c(Nc4ccc(S(C)(=O)=O)cc4F)ncnc23)CC1 [Example 8, isopropyl 4-(4-{[2-fluoro-4-(methylsulfonyl)phenyl]amino}furo[3,2-d]pyrimidin-7-yl)piperidine-1-carboxylate]	83.5
CS(=O)(=O)c1ccc(Nc2ncnc3c(C4CCN(S(=O)(=O)C5CC5)CC4)coc23)c(F)c1 [Example 11, 7-[1-(cyclopropylsulfonyl)piperidin-4-yl]-N-[2-fluoro-4-(methylsulfonyl)phenyl]furo[3,2-d]pyrimidine-4-amine]	76.9
CS(=O)(=O)c1ccc(Nc2ncnc3c(C4CCN(S(=O)(=O)C5CCCCC5)CC4)coc23)c(F)c1 [Example 12, 7-[1-(cyclohexylsulfonyl)piperidin-4-yl]-N-[2-fluoro-4-(methylsulfonyl)phenyl]furo[3,2-d]pyrimidine-4-amine]	9.1
CC(C)(C)OC(=O)N1CCC(c2coc3c(Oc4ccc(S(C)(=O)=O)c(F)c4)ncnc23)CC1 [Example 21, tert-butyl 4-{4-[3-fluoro-4-(methylsulfonyl)phenoxy]furo[3,2,d]pyrimidin-7-yl}piperidine-1-carboxylate]	51.9
CC(C)(C)OC(=O)N1CCC(c2coc3c(N4CCc5cc(S(C)(=O)=O)ccc54)ncnc23)CC1 [Example 24, tert-butyl 4-{4-[5-(methylsulfonyl)indolin-1-yl]furo[3,2-d]pyrimidin-7-yl}piperidine-1-carboxylate]	3.6
CCc1cnc(N2CCC(c3coc4c(N5CCc6cc(S(C)(=O)=O)ccc65)ncnc34)CC2)nc1 [Example 25, 7-[1-(5-ethylpyrimidin-2-yl)piperidin-4-yl]-4-[5-(methylsulfonyl)indolin-1-yl]furo[3,2-d]pyrimidine]	16.4
CC(C)(C)OC(=O)N1CCC(c2csc3c(Nc4ccc(S(C)(=O)=O)cc4F)ncnc23)CC1 [Example 27, tert-butyl 4-(4-{[2-fluoro-4-(methylsulfonyl)phenyl]amino}thieno[3,2-d]pyrimidin-7-yl)piperidine-1-carboxylate]	50.7
CS(=O)(=O)c1ccc(Nc2ncnc3c(C4CCN(c5ncc(C(F)(F)F)cn5)CC4)coc23)c(F)c1 [Example 31, N-[2-fluoro-4-(methylsulfonyl)phenyl]-7-{1-[5-(trifluoromethyl)pyrimidin-2-yl]piperidin-4-yl}furo[3,2-d]pyrimidine-4-amine]	4.5
CC(C)(OC(=O)N1CCC(c2coc3c(Nc4ccc(S(C)(=O)=O)cc4F)ncnc23)CC1)C(F)(F)F [Example 33, 1,1,1-trifluoro-2-methylpropan-2-yl 4-(4-{[2-fluoro-4-(methylsulfonyl)phenyl]amino}furo[3,2-d]pyrimidin-7-yl)piperidine-1-carboxylate]	15.1
CC(C)(C)COC(=O)N1CCC(c2coc3c(Nc4ccc(S(C)(=O)=O)cc4F)ncnc23)CC1 [Example 35, neopentyl 4-(4-{[2-fluoro-4-(methylsulfonyl)phenyl]amino}furo[3,2-d]pyrimidin-7-yl)piperidine-1-carboxylate]	58.4
CS(=O)(=O)c1ccc(Nc2ncnc3c(C4CCN(C(=O)OCC(Cl)(Cl)Cl)CC4)coc23)c(F)c1 [Example 36, 2,2,2-trichloroethyl 4-(4-{[2-fluoro-4-(methylsulfonyl)phenyl]amino}furo[3,2-d]pyrimidin-7-yl)piperidine-1-carboxylate]	18.7
CS(=O)(=O)c1ccc(Nc2ncnc3c(C4CCN(C(=O)Oc5ccccc5)CC4)coc23)c(F)c1 [Example 37, phenyl 4-(4-{[2-fluoro-4-(methylsulfonyl)phenyl]amino}furo[3,2-d]pyrimidin-7-yl)piperidine-1-carboxylate]	56.2
CC(C)(C)OC(=O)N1CCC(c2coc3c(Oc4ccc(S(C)(=O)=O)cc4)ncnc23)CC1 [Example 40, tert-butyl 4-(4-{4-(methylsulfonyl)phenoxy}furo[3,2-d]pyrimidin-7-yl)piperidine-1-carboxylate]	10.7
CC(C)(C)OC(=O)N1CCC(c2coc3c(Oc4ccc(-n5cnnn5)cc4)ncnc23)CC1 [Example 41, tert-butyl 4-{4-[4-(1H-tetrazol-1-yl)phenoxy]furo[3,2-d]pyrimidin-7-yl}piperidine-1-carboxylate]	42.9
